Measured values: patent US20090076029A1 (Palatin Technologies, Inc., priority 2007, published 2009)
Where two headings read alike, the source gives them in different places.

Assays:
hMC4-R [1] = system: T1, hMC4-R; format: binding, human; details: for Inhibition at 1 μM (AgRP) MC4-R: 1 μM compound
T1 construct: expressed in transfected cells; host or cells: HEK-293
Protocol: Competitive binding assay using [I^125]-AgRP (83-132). Competitive binding studies using [I^125]-AgRP (83-132) were carried out on membranes isolated from cells expressing hMC4-R. The assay was performed in 96 well GF/B Millipore multiscreen filtration plates (MAFB NOB10) pre-coated with 0.5% bovine serum albumin (Fraction V). The assay mixture contained 25 mM HEPES buffer (pH 7.5) with 100 mM NaCl, 2 mM CaCl2, 2 mM MgCl2, 0.3 mM 1,10-phenanthroline, 0.5% bovine serum albumin, cell membranes, radioligand [I^125]-AgRP (83-132) (NEN), and increasing concentrations of compounds in a total volume of 200 μL. Binding was measured at radioligand concentrations of 0.2 nM. After incubating for 1 hour at 37° C., the reaction mixture was filtered and washed with an assay buffer containing 500 mM NaCl. The dried discs were punched out from the plate and counted on a gamma counter. Care was taken to limit the specific binding of the ligand to an amount not exceeding 10% of the counts added to the reaction mixture. Data were analyzed using the Prism Graph-Pad curve fitting software.

hMC4-R [2] = system: T1, hMC4-R; test: cAMP functional assay in HEK-293 cells expressing MC4-R (agonist, neutral antagonist/Schild); format: cell-based, human; details: for functional status at MC4-R: mostly at 1 μM; for intrinsic activity at MC4-R: NDP-α-MSH maximal stimulation = 1.0
Protocol: General method for EC50 determination in functional activity assay. Functional evaluation of compounds at melanocortin receptors was performed by measuring the accumulation of intracellular cAMP in HEK-293 cells expressing hMC3-R, hMC4-R or hMC5-R, and in B-16 mouse melanoma cells expressing MC1-R. Cells suspended in Earle's Balanced Salt Solution containing 10 mM HEPES (pH 7.5), 5 mM MgCl2, 1 mM glutamine, 0.1% albumin and 0.6 mM 3-isobutyl-1-methyl-xanthine, a phosphodiesterase inhibitor, were plated in 96 well plates at a density of 0.5×10^5 cells per well. Cells were incubated with the test compounds in the presence or absence of α-MSH for 1 hour at 37° C. cAMP levels in the cell lysates were measured using an EIA kit (Amersham). Data analysis and EC50 values were determined using nonlinear regression analysis with Prism Graph-Pad software.
Functional status. The agonist/antagonist status with respect to MC1-R, MC-3R, MC4-R and MC5-R of certain compounds of the invention was determined.
Assay for agonist. Evaluation of the molecules to elicit a functional response in HEK-293 cells expressing MC4-R was accomplished by measuring the accumulation of intracellular cAMP following treatment. Confluent HEK-293 cells expressing MC4-R were detached by enzyme free cell suspension buffer. Cells were suspended in Earle's Balanced Salt Solution containing 10 mM HEPES (pH 7.5), 1 mM MgCl2, 1 mM glutamine, 0.5% albumin and 0.3 mM 3-isobutyl-1-methyl-xanthine (IBMX), a phosphodiesterase inhibitor. The cells were plated in 96 well plates at a density of 0.5×10^5 cells per well and pre-incubated for 30 minutes. The cells were then challenged with the test compounds dissolved in DMSO at a concentration range of 0.05-5000 nM in a total assay volume of 200 μL for 1 hour at 37° C. The concentration of DMSO was always held at 1% in the assay mixture. NDP-α-MSH was used as the reference agonist. At the end of the incubation period the cells were disrupted by the addition of 50 μL of lysis buffer from a cAMP EIA kit (Amersham). Complete rupture of the cells was obtained by pipetting the cells multiple times. cAMP levels in the cell lysates were measured after appropriate dilution using the EIA kit (Amersham) method. Data analysis and EC50 values were determined by using nonlinear regression analysis with Prism Graph-Pad software. […] FIG. 1 illustrates typical results, showing the stimulation of cAMP using the compound of Example 11 in HEK-293/MC4-R cells with comparison to NDP-α-MSH.
Assay for Neutral Antagonist. Compounds with a high affinity for binding to MC4-R membranes but with less potency in terms of cAMP accumulation (EC50>1000 nM) and low response ratio (<0.1) were analyzed for their ability to antagonize the stimulatory effect of the agonist NDP-α-MSH. These studies were carried out in HEK-293 cells expressing MC4-R. Cells were incubated with the compounds in the presence of the agonist NDP-α-MSH and the extent of antagonism was measured by the decrease in intracellular cAMP concentrations. Screening the compounds for antagonist activity was performed at a single concentration of NDP-α-MSH (1.0 nM) over a compound concentration range of 0.5-5000 nM.
Experimental details were similar to the analysis for agonistic activity described above. Briefly, cells were pre-incubated for 30 minutes with the test compounds at concentrations between 0.5 nM and 5000 nM. The cells were then stimulated with NDP-α-MSH at a concentration of 1 nM for 1 hour. For Schild's analysis, the interactions were studied using at least 3 concentrations of the compounds, separated by a log unit, over a full range of the agonist (0.005-5000 nM). cAMP levels were measured in the cell lysates after appropriate dilution. Nonlinear regression analysis with Prism Graph-Pad software was used for Schild analysis and to obtain EC50 values. pA2 values were derived from the Schild plot of the data.

hMC4-R [3] = target: T1, hMC4-R; test: Competitive inhibition assay using [I125]-NDP-α-MSH, hMC4-R membranes; format: binding, human
Protocol: (§1) Competitive inhibition assay using [1125]-NDP-α-MSH. A competitive inhibition binding assay was conducted using membranes prepared from HEK-293 cells transfected to express hMC3-R, hMC4-R or hMC5-R, and from B-16 mouse melanoma cells (containing MC1-R) using 0.2 to 0.4 nM [I^125]-NDP-α-MSH (New England Nuclear) in 50 mM HEPES buffer containing 1 mM MgCl2, 2 mM CaCl2, and 5 mM KCl, at pH 7.2. In certain experiments, HEK-293 cells transfected to express hMC1-R were also employed. The assay tube also contained a chosen concentration of the test compound of this invention, typically a 1 μM concentration, for determining inhibition of the binding of [^1125]-NDP-α-MSH to its receptor. Non-specific binding was measured by inhibition of binding of [I^125]-NDP-α-MSH in the assay with the presence of 1 μM α-MSH.
(§2) The assay mixture was incubated for 90 minutes at room temperature, then filtered and the membranes washed three times with ice cold buffer. The filter was dried and counted in a gamma counter for remaining radioactivity bound to the membranes. 100% specific binding was defined as the difference in radioactivity (cpm) bound to cell membranes in the absence and presence of 1 μM α-MSH. The cpm obtained in presence of test compounds were normalized with respect to 100% specific binding to determine the percent inhibition of [125]-NDP-α-MSH binding. Each assay was conducted in triplicate and the actual mean values are described, with results less than 0% reported as 0%.

MC1-R = target: T2, MC1-R; test: Competitive inhibition assay using [I125]-NDP-α-MSH, MC1-R membranes; format: binding, mouse
T2 construct: other: 1 μM compound
Protocol: as §1, §2

hMC3-R = target: T3, hMC3-R; test: Competitive inhibition assay using [I125]-NDP-α-MSH, hMC3-R membranes; format: binding, human; details: read-out: Ki (nM) (NDP-α-MSH) MC3-R
T3 construct: expressed in transfected cells; host or cells: HEK-293
Protocol: as §1, §2

[4] = cAMP assay, read-out: EC50 (nM) at MC4-R

Compound	Inhibition at 1 μM (AgRP) MC4-R (hMC4-R [1]) [%]	Ki (hMC4-R [1]; MC4-R membranes, Table 1, read-out: Ki (nM) I125-AgRP) [nM]	Ki (hMC4-R [1]; read-out: Ki (nM) (AgRP) MC4-R)	functional status (pAg, Ag, Antag, Inactive) (hMC4-R [2]; MC4-R, Table 1)	EC50 (hMC4-R [2]; MC4-R, Table 1, read-out: EC50) [nM]	functional status at MC4-R (hMC4-R [2]; cAMP assay)	Ki (hMC4-R [3]; MC4-R membranes, Table 1, read-out: Ki (nM) I125-NPD-α-MSH) [nM]	intrinsic activity at MC4-R (hMC4-R [2])	EC50 (hMC4-R [2]; [4]) [nM]	attenuation of binding of α-MSH and AgRP to MC4-R (hMC4-R [3]; both ligands (NDP-α-MSH and AgRP), summary)	Ki (MC1-R) [nM]	Inhibition at 1 μM (NDP-α-MSH) MC1-R (MC1-R; 1 μM compound) [%]	Ki (hMC3-R) [nM]	EC50 (hMC4-R [2]; MC4-R, Table 1 in μM, read-out: EC50) [nM]	EC50 (hMC4-R [2]; cAMP assay, printed in μm, read-out: EC50 at MC4-R) [nM]
NCCCC[C@H]1C(=O)N(CCc2ccc3ccccc3c2)CCN1C(=O)[C@@H](Cc1ccc(Cl)cc1Cl)NC(=O)c1ccc(Oc2ccccc2)cc1 [Example 22, N—[(R)-2-[(S)-2-(4-Amino-butyl)-4-(2-naphthalen-2-yl-ethyl)-3-oxo-piperazin-1-yl]-1-(2,4-dichloro-benzyl)-2-oxo-ethyl]-4-phenoxy-benzamide]	100	0.9	0.9	Inactive	> 1000	inactive	–	–	–	–	–	–	–	–	–
Cc1cc(Cl)ccc1C[C@@H](N)C(=O)N1C[C@@H](C)N(CCc2ccc3ccccc3c2)C[C@@H]1CCCNC(=N)N [Example 27, N-{3-[1-[2(R)-Amino-3-(2-methyl, 4-chloro-phenyl)-propionyl]-5(R)-methyl-4-(2-naphthaen-2-yl-ethy)-piperazin-2(S)-yl]-propyl}-guanidine]	–	–	–	pAg (“pAg” means partial agonist)	214	partial agonist (intrinsic activity between 0.1 (10%) and 0.7 (70%) is classified as a partial agonist)	29	0.3	214	–	–	–	–	–	–
C[C@@H]1CN(C(=O)[C@H](N)Cc2ccc(Cl)cc2)[C@@H](CCCNC(=N)N)CN1CCc1ccc2ccccc2c1 [Example 29, N-{3-[1-[2(R)-Amino-3-(4-CHLORO-phenyl)-propionyl]-5(R)-methyl-4-(2-naphthalen-2-yl-ethyl)-piperazin-2(S)-yl]-propyl}-guanidine]	97	–	15	Ag	252	agonist (intrinsic activity of 0.7 (70%) or higher is classified as an agonist)	–	0.8	252	attenuate the binding of both α-MSH and AgRP to MC4-R	–	–	–	–	–
NH2—(CH2)6—C(═O)-Ser(Bzl)-D-Phe(4-Cl)-Arg-Trp-Ala-NH2 [Example 16]	–	–	–	–	–	functionally inactive	–	–	–	–	142	60	35	> 1000	> 1000
